Activity calls are given as the source filed them.
What was measured:
[1] = biological target: T1, Estrogen receptor (Homo sapiens, UniProt P03372);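 note: potency for inhibiting coactivator peptide recruitment to the receptor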
T1 sequence (P03372 whole entry): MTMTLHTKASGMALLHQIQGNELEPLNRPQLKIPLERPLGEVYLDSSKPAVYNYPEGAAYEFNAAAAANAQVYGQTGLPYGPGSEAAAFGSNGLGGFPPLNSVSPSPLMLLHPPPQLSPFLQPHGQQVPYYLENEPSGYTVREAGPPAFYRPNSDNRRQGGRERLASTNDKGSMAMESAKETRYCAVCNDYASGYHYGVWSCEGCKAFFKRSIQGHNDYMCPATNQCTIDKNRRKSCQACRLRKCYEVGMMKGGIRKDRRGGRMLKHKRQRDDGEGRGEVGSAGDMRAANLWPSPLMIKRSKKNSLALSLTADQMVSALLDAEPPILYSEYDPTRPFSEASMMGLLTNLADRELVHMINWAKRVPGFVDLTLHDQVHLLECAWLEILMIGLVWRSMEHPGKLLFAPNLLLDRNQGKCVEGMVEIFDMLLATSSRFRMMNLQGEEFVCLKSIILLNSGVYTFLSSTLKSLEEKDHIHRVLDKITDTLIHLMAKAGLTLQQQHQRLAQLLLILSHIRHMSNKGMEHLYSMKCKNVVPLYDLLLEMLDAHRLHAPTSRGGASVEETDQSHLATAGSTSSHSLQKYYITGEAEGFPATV

[2] = biological target: T2, Aspartyl aminopeptidase (Plasmodium falciparum 3D7, UniProt Q8I2J3); test: Counterscreen for inhibitors of M1 and M17 aminopeptidases: QFRET-based biochemical high throughput dose response assay for inhibitors of the Plasmodium falciparum M18 Aspartyl Aminopeptidase (PFM18AAP). [Related PubChem assays: 1619 (Screening assay (M17LAP inhibitors).), 1445 (Screening assay (M1AAP inhibitors).)]
T2 sequence (Q8I2J3 whole entry): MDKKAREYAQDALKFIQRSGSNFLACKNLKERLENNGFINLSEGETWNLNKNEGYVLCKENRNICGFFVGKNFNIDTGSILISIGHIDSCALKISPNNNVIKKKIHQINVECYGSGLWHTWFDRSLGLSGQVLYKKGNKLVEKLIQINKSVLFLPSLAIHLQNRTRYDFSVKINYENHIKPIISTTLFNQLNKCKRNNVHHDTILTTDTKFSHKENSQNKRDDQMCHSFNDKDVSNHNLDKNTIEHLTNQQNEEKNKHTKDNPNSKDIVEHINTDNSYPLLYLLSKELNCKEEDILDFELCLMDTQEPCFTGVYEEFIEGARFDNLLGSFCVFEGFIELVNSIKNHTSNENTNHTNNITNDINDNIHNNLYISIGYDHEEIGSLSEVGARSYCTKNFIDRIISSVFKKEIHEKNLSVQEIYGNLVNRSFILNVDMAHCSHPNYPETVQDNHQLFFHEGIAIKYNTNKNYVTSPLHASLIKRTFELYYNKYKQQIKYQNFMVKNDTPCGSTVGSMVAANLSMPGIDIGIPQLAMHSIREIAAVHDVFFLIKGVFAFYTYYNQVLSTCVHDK

[3] = biological target: T3, Leucine aminopeptidase (Plasmodium falciparum 3D7, UniProt Q8IL11); test: P. falciparum M17LAP inhibitors, primary screen, biochemical, fluorogenic H-Leu-NHMec substrate, 1536-well (AID 1619); type: functional
T3 sequence (Q8IL11 whole entry): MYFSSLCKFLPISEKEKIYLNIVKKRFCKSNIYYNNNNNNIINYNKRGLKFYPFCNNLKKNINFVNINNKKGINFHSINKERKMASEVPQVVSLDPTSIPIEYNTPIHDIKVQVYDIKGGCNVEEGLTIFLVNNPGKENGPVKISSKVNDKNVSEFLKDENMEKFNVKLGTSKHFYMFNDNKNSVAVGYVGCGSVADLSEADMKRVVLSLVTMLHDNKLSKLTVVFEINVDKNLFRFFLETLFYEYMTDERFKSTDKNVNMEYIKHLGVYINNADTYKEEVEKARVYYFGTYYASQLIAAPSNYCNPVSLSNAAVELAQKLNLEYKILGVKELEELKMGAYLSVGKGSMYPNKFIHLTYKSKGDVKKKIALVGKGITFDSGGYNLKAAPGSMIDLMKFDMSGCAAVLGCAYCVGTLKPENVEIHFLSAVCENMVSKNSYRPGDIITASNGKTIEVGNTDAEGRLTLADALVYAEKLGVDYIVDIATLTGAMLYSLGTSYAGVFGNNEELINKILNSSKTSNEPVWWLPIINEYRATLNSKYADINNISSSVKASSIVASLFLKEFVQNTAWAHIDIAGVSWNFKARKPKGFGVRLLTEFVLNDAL

[4] = biological target: Procathepsin L (Homo sapiens, UniProt P07711); test: CTSL1 protease inhibition – biochemical, QFRET, 1536-well, counter-screen for M1/M17 aminopeptidase inhibitor project, dose response (AID 2214)
[5] = biological target: T4, Aryl hydrocarbon receptor (Homo sapiens, UniProt P35869); test: Luminescence-based cell-based high throughput dose response assay for activators of the Aryl Hydrocarbon Receptor (AHR). [Related pubchem assays: 2796 (Primary screen (AHR activators in singlicate)), 2845 (Confirmation screen (AHR activators in triplicate)), 434939 (Counterscreen (PXR activators in triplicate)), 2804 (Summary (AHR activators))]; type: ADME
T4 sequence (P35869 whole entry): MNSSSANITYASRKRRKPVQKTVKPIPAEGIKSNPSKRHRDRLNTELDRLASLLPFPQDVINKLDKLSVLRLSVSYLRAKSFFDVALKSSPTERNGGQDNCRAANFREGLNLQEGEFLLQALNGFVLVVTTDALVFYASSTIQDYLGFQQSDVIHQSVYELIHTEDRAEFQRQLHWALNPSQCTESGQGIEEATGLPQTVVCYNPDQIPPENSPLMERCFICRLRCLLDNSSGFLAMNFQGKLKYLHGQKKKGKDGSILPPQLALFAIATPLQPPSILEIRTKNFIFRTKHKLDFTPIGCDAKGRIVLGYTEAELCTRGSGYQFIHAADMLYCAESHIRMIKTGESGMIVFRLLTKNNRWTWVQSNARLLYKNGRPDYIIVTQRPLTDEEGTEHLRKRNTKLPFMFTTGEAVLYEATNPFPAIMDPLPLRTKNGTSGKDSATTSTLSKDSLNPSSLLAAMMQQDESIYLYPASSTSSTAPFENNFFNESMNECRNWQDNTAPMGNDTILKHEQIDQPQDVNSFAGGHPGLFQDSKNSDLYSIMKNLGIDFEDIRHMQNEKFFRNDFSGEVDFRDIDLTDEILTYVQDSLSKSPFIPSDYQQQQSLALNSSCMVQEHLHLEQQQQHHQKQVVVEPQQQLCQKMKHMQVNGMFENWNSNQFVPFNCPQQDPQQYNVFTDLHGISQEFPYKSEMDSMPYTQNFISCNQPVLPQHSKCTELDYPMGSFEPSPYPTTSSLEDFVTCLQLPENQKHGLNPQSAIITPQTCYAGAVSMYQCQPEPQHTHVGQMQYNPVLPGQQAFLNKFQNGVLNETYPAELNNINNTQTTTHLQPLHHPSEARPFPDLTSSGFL

[6] = cells
[7] = Trypanosoma cruzi growth suppression in host cells – NIH3T3 host cells, beta-gal luminescence, confirmation (AID 2044); type: functional, cell-based;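 note: intracellular parasites grown in NIH/3T3 mouse fibroblasts as host cells; luminescent beta-galactosidase reporter signal from transgenic T. cruzi replicating inside host cells; inhibitors lower the luminescence signal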
[8] = NIH3T3 cell viability loss – ATP luminescence, mouse fibroblasts, counter-screen, dose response (AID 2010); type: functional, cell-based;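 note: cells exposed to compound for about 90 hours before reading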
[9] = biological target: Peroxisome proliferator-activated receptor gamma/Nuclear receptor coactivator 1 (Homo sapiens, UniProt P37231); type: functional;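 note: agonist potency as compounds enhance coactivator SRC-1 recruitment to PPARgamma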
[10] = biological target: Prothrombin (Homo sapiens, UniProt P00734); test: Thrombin 1536 HTS Dose Response Confirmation. [Related pubchem assays: 1046 (Thrombin 1536 HTS; hits were confirmed in this assay)]; type: functional
[11] = biological target: Peroxisome proliferator-activated receptor gamma/Nuclear receptor coactivator 3 (Homo sapiens, UniProt P37231); type: functional;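 note: agonist potency for raising coactivator recruitment to the receptor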
[12] = biological target: Peroxisome proliferator-activated receptor gamma/Nuclear receptor coactivator 2 (Homo sapiens, UniProt P37231); type: functional;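 note: agonist potency for raising coactivator recruitment to the receptor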
[13] = viability of uninfected HEp-2 cells – cell-based, HTS, cytotoxicity control for RSV inhibitor project, dose response (AID 2410); type: functional; conditions: human respiratory syncytial virus
[14] = microbe, parasite or virus in culture; type: functional; conditions: Mycobacterium tuberculosis
[15] = cells; type: functional
[16] = biological target: T5, Mannose-6-phosphate isomerase (Homo sapiens, UniProt P34949); test: MPI inhibition at elevated mannose 6-phosphate – biochemical, fluorescence intensity, high mannose 6-phosphate, primary screen (AID 1220)
T5 sequence (P34949 whole entry): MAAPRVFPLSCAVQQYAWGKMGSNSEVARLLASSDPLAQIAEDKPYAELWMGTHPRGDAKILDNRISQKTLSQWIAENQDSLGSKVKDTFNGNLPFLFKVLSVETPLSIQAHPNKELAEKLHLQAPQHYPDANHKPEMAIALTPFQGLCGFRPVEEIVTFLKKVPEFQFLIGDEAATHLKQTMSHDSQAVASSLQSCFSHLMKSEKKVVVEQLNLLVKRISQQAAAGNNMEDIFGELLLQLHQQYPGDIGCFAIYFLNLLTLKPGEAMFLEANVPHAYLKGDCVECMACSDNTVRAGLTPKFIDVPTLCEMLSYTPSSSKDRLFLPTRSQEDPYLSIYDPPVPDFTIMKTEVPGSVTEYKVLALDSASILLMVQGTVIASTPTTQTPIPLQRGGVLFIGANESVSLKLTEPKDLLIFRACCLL

[17] = biological target: Eukaryotic translation initiation factor 4E (Mus musculus, UniProt P63073); test: blockers of eIF4G binding by eIF4E – biochemical, TR-FRET, dose response (AID 855); type: functional;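 note: potency for disrupting eIF4E binding to eIF4GI seen as loss of FRET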
[18] = biological target: T6, Voltage-gated N-type calcium channel alpha-1B subunit/Amyloid beta A4 precursor protein-binding family A member 1 (Homo sapiens, UniProt Q00975+Q02410); type: protein assay
[19] = biological target: T6, Voltage-gated N-type calcium channel alpha-1B subunit/Amyloid beta A4 precursor protein-binding family A member 1; type: protein assay; remark: listed apart in the source
[20] = biological target: DNA dC->dU-editing enzyme APOBEC-3G (Homo sapiens, UniProt Q9HC16); test: Dose Response confirmation of small molecule APOBEC3G DNA Deaminase Inhibitors via a fluorescence-based single-stranded DNA deaminase assay. [Related pubchem assays (depositor defined):AID493012, AID493028]; type: functional
[21] = biological target: DNA dC->dU-editing enzyme APOBEC-3A (Homo sapiens, UniProt P31941); test: A3A deaminase inhibition for selectivity – biochemical, dose response (AID 504722); type: functional
[22] = biological target: Induced myeloid leukemia cell differentiation protein Mcl-1 (Homo sapiens, UniProt Q07820); type: functional
[23] = biological target: T7, Estrogen receptor beta (Homo sapiens, UniProt Q92731); test: blockers of SRC-3 recruitment to ERβ – biochemical, ELISA, streptavidin-HRP readout, orthogonal assay, confirmation (AID 1060)
[24] = biological target: T7, Estrogen receptor beta
[25] = biological target: T8, Carboxy-terminal domain RNA polymerase II polypeptide A small phosphatase 1 (Homo sapiens, UniProt Q9GZU7); test: CTDSP1 inhibitors, concentration-response, biochemical, absorbance readout, ultra-high-throughput screen actives (AID 540297); type: functional
T8 sequence (Q9GZU7 whole entry): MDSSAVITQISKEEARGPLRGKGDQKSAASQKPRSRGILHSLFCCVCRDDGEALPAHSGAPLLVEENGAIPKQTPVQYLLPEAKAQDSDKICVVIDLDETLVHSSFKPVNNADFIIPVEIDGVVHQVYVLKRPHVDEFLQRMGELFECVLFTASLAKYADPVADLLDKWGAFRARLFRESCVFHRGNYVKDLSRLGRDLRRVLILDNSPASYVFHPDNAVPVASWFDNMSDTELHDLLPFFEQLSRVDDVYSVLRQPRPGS

Chain of Procathepsin L (P07711 whole entry): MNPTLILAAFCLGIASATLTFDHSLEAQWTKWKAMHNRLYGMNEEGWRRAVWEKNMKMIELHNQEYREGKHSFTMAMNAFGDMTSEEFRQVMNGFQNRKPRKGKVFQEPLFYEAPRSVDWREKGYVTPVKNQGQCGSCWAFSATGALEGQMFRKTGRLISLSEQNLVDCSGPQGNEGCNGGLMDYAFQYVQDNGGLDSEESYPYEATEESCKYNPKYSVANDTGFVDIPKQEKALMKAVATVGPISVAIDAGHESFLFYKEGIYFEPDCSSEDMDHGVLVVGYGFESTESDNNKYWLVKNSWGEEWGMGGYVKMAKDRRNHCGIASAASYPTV
T7 sequence (Q92731 whole entry): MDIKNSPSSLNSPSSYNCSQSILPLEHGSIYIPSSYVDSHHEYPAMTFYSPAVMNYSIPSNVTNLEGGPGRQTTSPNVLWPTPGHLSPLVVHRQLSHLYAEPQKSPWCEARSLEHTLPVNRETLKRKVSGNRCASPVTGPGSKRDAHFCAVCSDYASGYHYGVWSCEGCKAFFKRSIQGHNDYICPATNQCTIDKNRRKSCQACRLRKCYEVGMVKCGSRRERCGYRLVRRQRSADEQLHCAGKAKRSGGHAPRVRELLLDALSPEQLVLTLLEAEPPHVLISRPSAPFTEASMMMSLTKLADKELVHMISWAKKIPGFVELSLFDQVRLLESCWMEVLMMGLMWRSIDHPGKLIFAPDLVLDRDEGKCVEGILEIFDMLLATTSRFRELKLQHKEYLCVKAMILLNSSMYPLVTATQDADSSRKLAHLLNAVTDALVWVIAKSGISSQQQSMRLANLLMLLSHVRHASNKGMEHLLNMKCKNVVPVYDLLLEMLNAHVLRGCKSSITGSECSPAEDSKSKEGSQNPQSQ
T6 sequence (Q00975 whole entry): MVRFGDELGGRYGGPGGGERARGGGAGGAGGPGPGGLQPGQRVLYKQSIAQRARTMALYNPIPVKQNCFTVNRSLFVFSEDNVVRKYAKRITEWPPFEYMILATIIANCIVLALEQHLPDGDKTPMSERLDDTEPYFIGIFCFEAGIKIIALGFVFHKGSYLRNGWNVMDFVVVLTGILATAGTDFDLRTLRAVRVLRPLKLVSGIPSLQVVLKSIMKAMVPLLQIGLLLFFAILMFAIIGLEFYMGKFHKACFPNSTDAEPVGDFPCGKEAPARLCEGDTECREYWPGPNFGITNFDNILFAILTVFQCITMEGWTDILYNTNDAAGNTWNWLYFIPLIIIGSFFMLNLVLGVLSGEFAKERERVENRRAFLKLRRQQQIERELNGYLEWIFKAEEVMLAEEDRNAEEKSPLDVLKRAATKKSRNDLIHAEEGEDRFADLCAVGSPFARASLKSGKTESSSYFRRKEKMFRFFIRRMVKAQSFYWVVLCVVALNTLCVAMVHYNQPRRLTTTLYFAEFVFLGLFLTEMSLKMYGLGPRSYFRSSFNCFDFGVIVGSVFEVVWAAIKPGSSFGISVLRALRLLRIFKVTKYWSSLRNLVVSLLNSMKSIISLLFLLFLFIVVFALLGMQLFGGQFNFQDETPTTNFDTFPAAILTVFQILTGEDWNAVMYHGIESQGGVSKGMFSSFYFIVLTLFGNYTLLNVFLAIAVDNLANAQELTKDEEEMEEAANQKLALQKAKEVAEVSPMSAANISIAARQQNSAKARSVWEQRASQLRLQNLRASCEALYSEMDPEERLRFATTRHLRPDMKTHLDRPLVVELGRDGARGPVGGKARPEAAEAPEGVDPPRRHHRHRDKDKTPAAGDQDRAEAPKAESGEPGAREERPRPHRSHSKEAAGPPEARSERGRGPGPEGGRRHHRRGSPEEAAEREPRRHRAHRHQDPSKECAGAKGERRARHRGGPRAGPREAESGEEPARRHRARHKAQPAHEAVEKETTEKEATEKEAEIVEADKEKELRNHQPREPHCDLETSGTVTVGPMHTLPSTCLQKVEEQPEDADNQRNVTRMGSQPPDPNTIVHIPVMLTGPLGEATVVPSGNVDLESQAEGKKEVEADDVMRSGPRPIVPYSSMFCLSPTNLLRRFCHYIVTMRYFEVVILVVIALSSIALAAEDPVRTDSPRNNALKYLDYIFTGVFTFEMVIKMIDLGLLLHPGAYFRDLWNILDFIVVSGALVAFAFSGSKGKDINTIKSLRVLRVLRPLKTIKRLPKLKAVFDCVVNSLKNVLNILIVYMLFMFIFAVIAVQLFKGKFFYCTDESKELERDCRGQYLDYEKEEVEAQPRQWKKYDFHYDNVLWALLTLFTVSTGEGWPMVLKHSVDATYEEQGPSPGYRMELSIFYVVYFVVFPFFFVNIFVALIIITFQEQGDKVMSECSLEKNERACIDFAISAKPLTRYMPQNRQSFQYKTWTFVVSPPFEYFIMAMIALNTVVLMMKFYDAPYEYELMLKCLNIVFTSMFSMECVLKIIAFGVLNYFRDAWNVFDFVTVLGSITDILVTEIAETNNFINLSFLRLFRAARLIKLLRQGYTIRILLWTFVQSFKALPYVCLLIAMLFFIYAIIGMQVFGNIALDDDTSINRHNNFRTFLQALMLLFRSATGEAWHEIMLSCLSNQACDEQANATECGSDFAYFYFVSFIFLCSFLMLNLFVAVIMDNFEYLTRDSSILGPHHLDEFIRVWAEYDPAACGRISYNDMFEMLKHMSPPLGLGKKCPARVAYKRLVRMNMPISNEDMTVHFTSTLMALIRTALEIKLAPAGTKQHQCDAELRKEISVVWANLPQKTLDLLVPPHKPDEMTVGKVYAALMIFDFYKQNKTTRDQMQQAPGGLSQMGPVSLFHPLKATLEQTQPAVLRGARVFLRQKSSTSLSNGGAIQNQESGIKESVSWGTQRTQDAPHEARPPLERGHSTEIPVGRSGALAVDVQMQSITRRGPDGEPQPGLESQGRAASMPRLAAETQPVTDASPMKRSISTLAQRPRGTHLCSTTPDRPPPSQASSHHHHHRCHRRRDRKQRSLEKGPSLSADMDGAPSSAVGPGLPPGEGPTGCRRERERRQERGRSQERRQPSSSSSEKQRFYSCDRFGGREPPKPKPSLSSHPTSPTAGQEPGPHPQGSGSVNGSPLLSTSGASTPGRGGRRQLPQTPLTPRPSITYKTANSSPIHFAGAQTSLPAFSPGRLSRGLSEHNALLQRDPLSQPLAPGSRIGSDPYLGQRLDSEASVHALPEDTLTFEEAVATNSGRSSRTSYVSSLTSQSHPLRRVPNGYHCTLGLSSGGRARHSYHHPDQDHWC
T6 sequence (Q02410 whole entry): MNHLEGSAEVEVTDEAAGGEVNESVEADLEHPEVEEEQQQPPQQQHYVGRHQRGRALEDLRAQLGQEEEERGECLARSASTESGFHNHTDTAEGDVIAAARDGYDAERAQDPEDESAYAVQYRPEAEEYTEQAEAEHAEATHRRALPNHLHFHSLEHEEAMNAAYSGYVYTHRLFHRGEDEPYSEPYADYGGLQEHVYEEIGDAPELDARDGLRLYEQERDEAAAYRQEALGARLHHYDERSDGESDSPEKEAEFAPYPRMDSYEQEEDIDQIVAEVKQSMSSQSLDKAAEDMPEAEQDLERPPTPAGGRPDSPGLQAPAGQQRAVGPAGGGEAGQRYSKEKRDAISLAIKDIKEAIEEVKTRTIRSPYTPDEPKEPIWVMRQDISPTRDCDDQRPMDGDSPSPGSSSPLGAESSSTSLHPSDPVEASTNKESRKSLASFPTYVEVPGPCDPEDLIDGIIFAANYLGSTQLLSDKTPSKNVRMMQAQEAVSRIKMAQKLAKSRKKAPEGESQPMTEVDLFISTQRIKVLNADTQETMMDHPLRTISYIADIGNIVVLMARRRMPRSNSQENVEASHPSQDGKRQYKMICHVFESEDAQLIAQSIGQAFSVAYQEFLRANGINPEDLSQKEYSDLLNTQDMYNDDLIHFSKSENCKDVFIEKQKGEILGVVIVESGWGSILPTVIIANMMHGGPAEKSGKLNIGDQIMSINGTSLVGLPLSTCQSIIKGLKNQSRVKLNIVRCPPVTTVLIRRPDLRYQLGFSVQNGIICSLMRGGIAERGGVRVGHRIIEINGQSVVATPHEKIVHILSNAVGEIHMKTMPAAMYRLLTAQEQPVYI
Chain of DNA dC->dU-editing enzyme APOBEC-3A (P31941 whole entry): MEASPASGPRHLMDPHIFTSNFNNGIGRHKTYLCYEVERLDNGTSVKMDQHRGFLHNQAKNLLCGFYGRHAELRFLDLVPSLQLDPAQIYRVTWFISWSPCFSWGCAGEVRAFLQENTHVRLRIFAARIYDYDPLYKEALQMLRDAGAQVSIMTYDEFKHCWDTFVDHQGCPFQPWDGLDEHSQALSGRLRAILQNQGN
Chain of Eukaryotic translation initiation factor 4E (P63073 whole entry): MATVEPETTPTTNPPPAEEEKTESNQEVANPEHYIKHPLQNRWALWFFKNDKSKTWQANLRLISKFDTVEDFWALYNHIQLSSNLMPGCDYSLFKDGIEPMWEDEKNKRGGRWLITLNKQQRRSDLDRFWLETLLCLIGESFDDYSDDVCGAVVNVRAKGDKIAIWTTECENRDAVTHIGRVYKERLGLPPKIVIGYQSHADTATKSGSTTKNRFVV
Chain of Induced myeloid leukemia cell differentiation protein Mcl-1 (Q07820 whole entry): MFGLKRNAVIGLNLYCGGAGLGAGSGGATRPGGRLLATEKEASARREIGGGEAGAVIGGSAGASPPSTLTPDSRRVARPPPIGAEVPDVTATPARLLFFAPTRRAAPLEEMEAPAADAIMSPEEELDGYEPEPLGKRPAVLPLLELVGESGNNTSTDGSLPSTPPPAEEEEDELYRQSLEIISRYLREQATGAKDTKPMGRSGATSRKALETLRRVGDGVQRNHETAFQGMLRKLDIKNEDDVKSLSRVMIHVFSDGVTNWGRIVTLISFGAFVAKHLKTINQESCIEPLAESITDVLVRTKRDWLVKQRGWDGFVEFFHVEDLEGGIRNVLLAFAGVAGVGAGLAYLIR

With `O=C(Nc1cccc(-c2cn3cccnc3n2)c1)c1ccc2c(c1)OCO2` the IC50 [1] was 6.67 µM (active).
For `CC1(C)Cc2c(sc(NC(=O)C3CC(Cl)=CCC3C(=O)O)c2C#N)CO1` (stereo unspecified), the IC50 [2] was > 73.5 µM (not active), the IC50 [3] was 1.4 µM (active) and the IC50 [4] was > 59.6 µM (not active).
In the case of `Nc1c(C(=O)c2ccc(Br)cc2)oc2ccccc12`, the EC50 [5] is reported as 3.3 µM (active).
For `CN(C)c1ccc(CNCCC2CCOC(C)(C)C2)cc1` (stereo unspecified), the EC50 [6] was 0.036 µM (active), the EC50 [7] was < 0.1 µM (active) and the EC50 [8] was > 30 µM (not active).
With `COc1cc(OC)cc(-n2nnnc2SCC(=O)Nc2ccc(C(C)=O)cc2)c1` the EC50 [9] was 8.56 µM (active), the IC50 [10] was > 50 µM (not active) and the EC50 [11] was 8.1 µM (active). For the same compound, the EC50 [12] was 5.13 µM (active).
With `Cc1cc(C)n2cc(-c3ccc(Cl)cc3)c(C(=O)O)c2n1` the EC50 [5] was 0.994 µM (active) and the CC50 [13] was 38.9 µM (active).
For `CCOC(=O)c1sc(NC(=O)/C=C/c2cnn(C)c2C)c(C(=O)OCC)c1C`, the IC50 [10] was > 50 µM (not active).
For `CCN(/N=C/c1ccc(Cl)cc1)c1cc(=O)n(C)c(=O)[nH]1`, the EC50 [5] was 1.12 µM (active).
For `O=C(c1cc([N+](=O)[O-])cc([N+](=O)[O-])c1)N(Cc1nnc(-c2ccccc2Cl)o1)C1CC1`, the CC50 [14] was > 40 µM (active), the EC50 [6] was 0.068 µM (active) and the EC50 [7] was < 0.1 µM (active). For the same compound, the EC50 [8] was > 60 µM (not active) and the IC50 [15] was 1.75 µM (active).
For `CCOC(=O)c1ccc(/N=c2\ssnc2Cl)cc1`, the IC50 [16] was > 50 µM (not active), the IC50 [17] was 50 µM (inactive) and the IC50 [18] was 7.13 µM (active). The IC50 [19] was 11.5 µM (active), the IC50 [20] was 13.8 µM (active) and the IC50 [21] was > 100 µM (inactive).
With `Cc1ccc(/C=c2\sc3nc(-c4ccccc4Br)nn3c2=O)o1` the IC50 [22] was 3.18 µM (active), the IC50 [23] was 0.0611 µM (not active) and the IC50 [24] was > 50 µM (not active). For the same compound, the IC50 [10] was > 50 µM (not active), the IC50 [3] was 95.5 µM (active) and the IC50 [25] was 5.95 µM (active).
With `C=CCn1c(N)cc(=O)nc1SCC(=O)Nc1ccc2ccccc2c1` the IC50 [2] was > 73.5 µM (not active), the IC50 [3] was 5.68 µM (active) and the IC50 [4] was > 59.6 µM (not active).

Reference: ChEMBL document CHEMBL1201862, “PubChem BioAssay data set” (2004)
